The results in this text go back to US9840507B2, “5,6-dihydro-imidazo[1,2-a]pyrazin-8-ylamine derivatives useful as inhibitors of beta-secretase (BACE)” (Janssen Pharmaceutica, NV, priority 2010, dated 2017).

Assay [1] concerns Aβtotal produced and secreted into the medium of human neuroblastoma SKNBE2 cells. As to the kind of experiment: Cellular αlisa assay in SKNBE2 cells, Aβtotal. It is filed as cell-based. To be noted: Homo sapiens, SKNBE2, 18 h, SKNBE2 cells expressing hAPP695, incubated for 18 hours; read-out: Cellular αlisa assay in SKNBE2 cells Aβtotal pIC50 (converted). The procedure:
(§1) In two αlisa assays the levels of Aβtotal and Aβ42 produced and secreted into the medium of human neuroblastoma SKNBE2 cells are quantified. The assay is based on the human neuroblastoma SKNBE2 expressing the wild type Amyloid Precursor Protein (hAPP695). The compounds are diluted and added to these cells, incubated for 18 hours and then measurements of Aβ42 and Aβtotal are taken. Aβtotal and Aβ42 are measured by sandwich αlisa. αlisa is a sandwich assay using biotinylated antibody AbN/25 attached to streptavidin coated beads and antibody Ab4G8 or cAb42/26 conjugated acceptor beads for the detection of Aβtotal and Aβ42 respectively. In the presence of Aβtotal or Aβ42, the beads come into close proximity. The excitation of the Donor beads provokes the release of singlet oxygen molecules that triggers a cascade of energy transfer in the Acceptor beads, resulting in light emission. Light emission is measured after 1 hour incubation (excitation at […] and emission at 615 nm).
(§2) A best-fit curve is fitted by a minimum sum of squares method to the plot of % Controlmin versus compound concentration.
(§3) LC=Median of the low control values
(§4) =Low control: cells preincubated without compound, without biotinylated Ab in the αlisa
(§5) HC=Median of the High control values
(§6) =High Control: cells preincubated without compound % Effect=100−[(sample−LC)/(HC−LC)*100] % Control=(sample/HC)*100% % Controlmin=(sample−LC)/(HC−LC)*100

Assay [2] addresses T1, recombinant BACE1 protein (Homo sapiens, UniProt P56817).
T1 construct: recombinant BACE1 protein in a final concentration of 1 μg/ml
As to the kind of experiment: Biochemical FRET based assay. To be noted: recombinant BACE1 1 μg/ml, 10 μm substrate, 120 minutes, room temperature, pH 5.0; read-out: Biochemical FRET based assay pIC50 (converted).
Description: This assay is a Fluorescence Resonance Energy Transfer Assay (FRET) based assay. The substrate for this assay is an APP derived 13 amino acids peptide that contains the ‘Swedish’ Lys-Met/Asn-Leu mutation of the amyloid precursor protein (APP) β-secretase cleavage site. This substrate also contains two fluorophores: (7-methoxycoumarin-4-yl) acetic acid (Mca) is a fluorescent donor with excitation wavelength at 320 nm and emission at 405 nm and 2,4-Dinitrophenyl (Dnp) is a proprietary quencher acceptor. […] Upon cleavage by BACE1, the fluorophore Mca is separated from the quenching group Dnp, restoring the full fluorescence yield of the donor. The increase in fluorescence is linearly related to the rate of proteolysis (Koike H et al. J. Biochem. 1999, 126, 235-242).
Briefly in a 384-well format recombinant BACE1 protein in a final concentration of 1 μg/ml is incubated for 120 minutes at room temperature with 10 μm substrate in incubation buffer (40 mM Citrate buffer pH 5.0, 0.04% PEG, 4% DMSO) in the absence or presence of compound. Next the amount of proteolysis is directly measured by fluorescence measurement at T=0 and T=120 (excitation at 320 nm and emission at 405 nm).
as §3
=Low control: Reaction without enzyme
as §5
=High Control: Reaction with enzyme % Effect=100−[(sample−LC)/(HC−LC)*100] % Control=(sample/HC)*100% % Controlmin=(sample−LC)/(HC−LC)*100

The subject of assay [3] is Aβ42 produced and secreted into the medium of human neuroblastoma SKNBE2 cells. As to the kind of experiment: Cellular αlisa assay in SKNBE2 cells, Aβ42. It is filed as cell-based. The settings on record: Homo sapiens, SKNBE2, 18 h, SKNBE2 cells expressing hAPP695, incubated for 18 hours; read-out: Cellular αlisa assay in SKNBE2 cells Aβ42 pIC50 (converted). The procedure: as §1, §2, §3, §4, §5, §6

For assay [4], the system named is brain levels of soluble Aβ42. As to the kind of experiment: In vivo efficacy: brain Aβ42 lowering (ELISA). Details: species or system mouse. The settings on record: 30 mpk, s.c., 2 h after administration. An excerpt:
(§7) To determine whether acute administration of an Aβ42 peptide lowering agent would reduce Aβ peptide levels in vivo, non-transgenic rodents, e.g. mice or rats were used. Animals treated with the Aβ peptide lowering agent were examined and compared to those untreated or treated with vehicle and brain levels of soluble Aβ42 and total Aβ were quantitated by standard techniques, for example, using ELISA. Treatment periods varied from hours (h) to days and were adjusted based on the results of the Aβ42 lowering once a time course of onset of effect could be established.
(§8) A typical protocol for measuring Aβ42 lowering in vivo is shown but it is only one of many variations that could be used to optimize the levels of detectable Aβ. For example, Aβpeptide lowering compounds were formulated in 20% hydroxypropyl β cyclodextrin. The Aβ peptide lowering agents were administered as a single oral dose (p.o.) or a single subcutaneous dose (s.c.) to overnight fasted animals. After a certain time, usually 2 or 4 h (as indicated in Table 19), the animals were sacrificed and Aβ42 levels were analysed.
(§9) Blood was collected by decapitation and exsanguinations in EDTA-treated collection tubes. Blood was centrifuged at 1900 g for 10 minutes (min) at 4° C. and the plasma recovered and flash frozen for later analysis. The brain was removed from the cranium and hindbrain. The cerebellum was removed and the left and right hemisphere were separated. The left hemisphere was stored at −18° C. for quantitative analysis of test compound levels. The right hemisphere was rinsed with phosphate-buffered saline (PBS) buffer and immediately frozen on dry ice and stored at −80° C. until homogenization for biochemical assays.
(§10) Mouse brains from non-transgenic animals were resuspended in 8 volumes of 0.4% DEA (diethylamine)/50 mM NaCl containing protease inhibitors (Roche-11873580001 or 04693159001) per gram of tissue, e.g. for 0.158 g brain, add 1.264 ml of 0.4% DEA. All samples were homogenized in the FastPrep-24 system (MP Biomedicals) using lysing matrix D (MPBio #6913-100) at 6 m/s for 20 seconds. Homogenates were centrifuged at 221.300×g for 50 min. The resulting high speed supernatants were then transferred to fresh eppendorf tubes. Nine parts of supernatant were neutralized with 1 part 0.5 M Tris-HCl pH 6.8 and used to quantify Aβtotal and Aβ42.
(§11) To quantify the amount of Aβtotal and Aβ42 in the soluble fraction of the brain homogenates, Enzyme-Linked-Immunosorbent-Assays were used. Briefly, the standards (a dilution of synthetic Aβ1-40 and Aβ1-42, Bachem) were prepared in 1.5 ml Eppendorf tube in Ultraculture, with final concentrations ranging from 10000 to 0.3 pg/ml. The samples and standards were co-incubated with HRPO-labelled N-terminal antibody for Aβ42 detection and with the biotinylated mid-domain antibody 4G8 for Aβtotal detection. 50 μl of conjugate/sample or conjugate/standards mixtures were then added to the antibody-coated plate (the capture antibodies selectively recognize the C-terminal end of Aβ42, antibody JRF/cAβ42/26, for Aβ42 detection and the N-terminus of Aβ, antibody JRF/rAβ/2, for Aβtotal detection). The plate was allowed to incubate overnight at 4° C. in order to allow formation of the antibody-amyloid complex. Following this incubation and subsequent wash steps the ELISA for Aβ42 quantification was finished by addition of Quanta Blu fluorogenic peroxidase substrate according to the manufacturer's instructions (Pierce Corp., Rockford, Il). A reading was performed after 10 to 15 min (excitation 320 nm/emission 420 nm).
In this model at least 20% Aβ42 lowering compared to untreated animals would be advantageous.

In assay [5] the test system is brain levels of total Aβ. As to the kind of experiment: In vivo efficacy: brain Aβtotal lowering (ELISA). Details: species or system mouse. The settings on record: 30 mpk, s.c., 2 h after administration.
Description: as §7, §8, §9, §10, §11
For Aβtotal detection, a Streptavidine-Peroxidase-Conjugate was added, followed 60 min later by an additional wash step and addition of Quanta Blu fluorogenic peroxidase substrate according to the manufacturer's instructions (Pierce Corp., Rockford, Il). A reading was performed after 10 to 15 min (excitation 320 nm/emission 420 nm).

T1 sequence (P56817 46-501): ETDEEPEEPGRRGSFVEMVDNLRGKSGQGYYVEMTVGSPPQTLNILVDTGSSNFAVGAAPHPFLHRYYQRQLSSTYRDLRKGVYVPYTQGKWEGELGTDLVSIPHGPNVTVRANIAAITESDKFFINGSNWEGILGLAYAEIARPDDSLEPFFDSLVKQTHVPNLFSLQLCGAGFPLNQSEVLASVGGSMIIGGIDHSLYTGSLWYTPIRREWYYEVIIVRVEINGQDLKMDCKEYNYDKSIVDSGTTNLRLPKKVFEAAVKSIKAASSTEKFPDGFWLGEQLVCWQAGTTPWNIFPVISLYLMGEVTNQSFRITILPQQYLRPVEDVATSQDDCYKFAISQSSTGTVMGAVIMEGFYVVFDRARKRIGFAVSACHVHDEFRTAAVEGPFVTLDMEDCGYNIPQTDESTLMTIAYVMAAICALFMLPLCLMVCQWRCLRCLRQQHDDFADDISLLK

For `CC1(c2cc(NC(=O)c3ccc(F)cn3)ccc2F)Cn2ccnc2C(N)=N1` (single isomer, unassigned) [Compound 10], the IC50 was 50.1 nM in assay [1], 214 nM in assay [2] and 58.9 nM in assay [3]. The “Aβ42 (% Ctrl)_Mean” value in assay [4] amounted to 45 % Ctrl. Further, the “Aβtotal (% Ctrl)_Mean” value in assay [5] stood at 53 % Ctrl.
